Results reported in PMC3672506, “A useful EGFR-TK ligand for tumor diagnosis with SPECT: development of radioiodinated 6-(3-morpholinopropoxy)-7-ethoxy-4-(3′-iodophenoxy)quinazoline” (Annals of Nuclear Medicine, 2013).
Where two headings read alike, the source gives them in different places.

Tests used:
[1] = assay type: in vivo; settings: normal ddY mice; for Blood radioactivity / Bone radioactivity / Brain radioactivity / Colon radioactivity / Heart radioactivity / Intestine radioactivity / Kidney radioactivity / Liver radioactivity / Lung radioactivity / Muscle radioactivity / Pancreas radioactivity / Skin radioactivity / Spleen radioactivity / Stomach radioactivity / Thyroid radioactivity: i.v.
Method: [^125I]PYK (37 kBq, 74 TBq/mmol) in 0.1 mL saline was injected intravenously into ddY male mice (5 weeks old, 25–30 g, n = 4) via the lateral tail vein. At the desired time (5 min—24 h) interval after administration, the animals were sacrificed by decapitation. Samples of blood and tissues of interest were excised and weighed. Radioactivity was measured using a well-type NaI(Tl) scintillation gamma counter. The results were expressed in terms of percentage of injected dose per gram of blood or tissue.
[^125I]PYK was transported well into various organs and disappeared slowly from the blood. In the liver highest uptake and rapid clearance were observed. The lungs, kidney, heart, pancreas, spleen, and brain uptakes were similar pattern to that of the liver. Furthermore, the increase in [^125I]PYK uptake in the stomach and thyroid as deiodination parameters were not found.

[2] = target: EGFR-TK in A431 cell membranes (Homo sapiens, UniProt P00533); assay type: binding
Method: (§1) Assays were carried out as described in the previous section. Crude P2 membrane fractions (A431or NALM6, 0.1 mg of protein, 10 μL) and [^125I]PYK (1–300 nM, 100 μL, 0.74 kBq) were used. […] Specific binding was defined as the difference between the total and non-specific binding. Scatchard plot analysis of the saturation binding data was used to determine the equilibrium dissociation constant (K d) and the maximal number of binding sites (B max).
(§2) The crude P2 membrane fraction from A431 or NAlM6 cells were used in further binding experiments for pharmacological characterization. […] While, in the NALM6 as a negative-EGFR leukemia cell line, [^125I]PYK binding to cell membranes was undetectable.

NALM6 cell membranes = assay type: binding; settings: NALM6, negative-EGFR leukemia cell line
Method: as §1, §2

A431 tumor = assay: SPECT/CT imaging of A431 tumor-bearing mice; assay type: in vivo; settings: 24 h after injection
Method: The mice underwent SPECT/CT studies when A431 tumors had grown to optimal size (approximately 2 weeks after inoculation). ^125I gamma camera imaging and image processing were performed using a small-animal imaging system with pinhole collimation (aperture diameter = 1 mm, focal length = 9 cm) and a 15- to 45 keV photo peak energy window (PET/SPECT/CT FX system, Gamma Medica Ideas). […] 24 h after injection, SPECT scans were performed at 64 projections over 360° (ROR = 4.5 cm, 60 s/projection). Reconstructed data from SPECT and CT were visualized and coregistered using AMIRA 3.1.
[^125I]PYK-SPECT images of tumors were very clear without interference from radioactivity in peripheral organs.

Chain of EGFR-TK in A431 cell membranes (P00533 25-1210): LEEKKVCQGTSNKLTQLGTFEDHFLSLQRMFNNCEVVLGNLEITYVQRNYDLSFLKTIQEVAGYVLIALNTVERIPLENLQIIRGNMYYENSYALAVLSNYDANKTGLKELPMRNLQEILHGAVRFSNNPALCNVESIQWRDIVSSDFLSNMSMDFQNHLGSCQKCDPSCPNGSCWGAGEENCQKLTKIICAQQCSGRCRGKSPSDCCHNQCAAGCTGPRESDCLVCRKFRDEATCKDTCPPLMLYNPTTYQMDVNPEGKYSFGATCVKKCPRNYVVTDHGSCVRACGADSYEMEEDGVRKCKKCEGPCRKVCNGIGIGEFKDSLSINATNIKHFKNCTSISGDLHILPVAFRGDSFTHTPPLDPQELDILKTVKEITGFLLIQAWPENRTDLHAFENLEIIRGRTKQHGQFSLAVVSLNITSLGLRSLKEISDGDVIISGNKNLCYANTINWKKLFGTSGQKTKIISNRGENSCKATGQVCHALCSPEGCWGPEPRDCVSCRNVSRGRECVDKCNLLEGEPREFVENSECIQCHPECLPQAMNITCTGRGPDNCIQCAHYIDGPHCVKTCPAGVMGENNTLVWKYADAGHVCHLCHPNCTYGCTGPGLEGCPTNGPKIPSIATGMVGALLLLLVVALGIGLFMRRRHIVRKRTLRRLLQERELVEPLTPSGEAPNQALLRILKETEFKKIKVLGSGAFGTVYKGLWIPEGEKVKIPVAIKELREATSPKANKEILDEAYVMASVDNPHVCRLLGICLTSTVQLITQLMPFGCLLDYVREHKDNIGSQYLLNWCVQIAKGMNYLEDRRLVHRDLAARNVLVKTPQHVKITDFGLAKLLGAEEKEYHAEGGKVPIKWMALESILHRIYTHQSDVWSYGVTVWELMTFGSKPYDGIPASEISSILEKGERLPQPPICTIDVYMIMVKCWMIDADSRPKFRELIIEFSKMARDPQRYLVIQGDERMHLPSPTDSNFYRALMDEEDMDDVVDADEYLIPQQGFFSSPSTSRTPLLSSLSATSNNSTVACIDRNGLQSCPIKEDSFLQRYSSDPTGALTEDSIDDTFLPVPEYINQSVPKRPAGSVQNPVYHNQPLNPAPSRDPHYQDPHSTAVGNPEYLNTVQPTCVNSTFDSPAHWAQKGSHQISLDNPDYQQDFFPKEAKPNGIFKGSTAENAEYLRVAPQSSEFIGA

CCOc1cc2ncnc(Oc3cccc([125I])c3)c2cc1OCCCN1CCOCC1 [[^125I]PYK]
in vivo stability (deiodination: stomach and thyroid uptake) [1]: good stability
Blood radioactivity ([1]; 5 min after injection): 0.98 ± 0.61 % injected dose per gram tissu
Bone radioactivity ([1]; 5 min after injection): 1.13 ± 0.28 % injected dose per gram tissu
Brain radioactivity ([1]; 5 min after injection): 2.07 ± 0.07 % injected dose per gram tissu
Colon radioactivity ([1]; 5 min after injection): 1.89 ± 0.37 % injected dose per gram tissu
Heart radioactivity ([1]; 5 min after injection): 3.47 ± 0.29 % injected dose per gram tissu
Intestine radioactivity ([1]; 5 min after injection): 4.57 ± 0.63 % injected dose per gram tissu
Kidney radioactivity ([1]; 5 min after injection): 15.1 ± 1.38 % injected dose per gram tissu
Liver radioactivity ([1]; 5 min after injection): 10.5 ± 0.92 % injected dose per gram tissu
Lung radioactivity ([1]; 5 min after injection): 11.89 ± 2.86 % injected dose per gram tissu
Muscle radioactivity ([1]; 5 min after injection): 1.78 ± 0.13 % injected dose per gram tissu
Pancreas radioactivity ([1]; 5 min after injection): 6.95 ± 0.49 % injected dose per gram tissu
Skin radioactivity ([1]; 5 min after injection): 0.68 ± 0.13 % injected dose per gram tissu
Spleen radioactivity ([1]; 5 min after injection): 4.42 ± 0.95 % injected dose per gram tissu
Stomach radioactivity ([1]; 5 min after injection): 2.41 ± 0.59 % injected dose per gram tissu
Thyroid radioactivity ([1]; 5 min after injection): 0.05 ± 0.04 % injected dose per organ
Blood radioactivity ([1]; 15 min after injection): 1.05 ± 0.08 % injected dose per gram tissu
Bone radioactivity ([1]; 15 min after injection): 1.36 ± 0.39 % injected dose per gram tissu
Brain radioactivity ([1]; 15 min after injection): 3.15 ± 1.22 % injected dose per gram tissu
Colon radioactivity ([1]; 15 min after injection): 2.21 ± 0.48 % injected dose per gram tissu
Heart radioactivity ([1]; 15 min after injection): 1.76 ± 0.89 % injected dose per gram tissu
Intestine radioactivity ([1]; 15 min after injection): 5.57 ± 1.69 % injected dose per gram tissu
Kidney radioactivity ([1]; 15 min after injection): 15.6 ± 1.33 % injected dose per gram tissu
Liver radioactivity ([1]; 15 min after injection): 13.9 ± 2.47 % injected dose per gram tissu
Lung radioactivity ([1]; 15 min after injection): 6.85 ± 1.99 % injected dose per gram tissu
Muscle radioactivity ([1]; 15 min after injection): 0.97 ± 0.15 % injected dose per gram tissu
Pancreas radioactivity ([1]; 15 min after injection): 5.52 ± 0.50 % injected dose per gram tissu
Skin radioactivity ([1]; 15 min after injection): 0.91 ± 0.13 % injected dose per gram tissu
Spleen radioactivity ([1]; 15 min after injection): 4.23 ± 0.90 % injected dose per gram tissu
Stomach radioactivity ([1]; 15 min after injection): 3.03 ± 0.36 % injected dose per gram tissu
Thyroid radioactivity ([1]; 15 min after injection): 0.05 ± 0.03 % injected dose per organ
Blood radioactivity ([1]; 30 min after injection): 0.80 ± 0.07 % injected dose per gram tissu
Bone radioactivity ([1]; 30 min after injection): 0.60 ± 0.19 % injected dose per gram tissu
Brain radioactivity ([1]; 30 min after injection): 0.82 ± 0.33 % injected dose per gram tissu
Colon radioactivity ([1]; 30 min after injection): 2.33 ± 0.40 % injected dose per gram tissu
Heart radioactivity ([1]; 30 min after injection): 1.43 ± 0.16 % injected dose per gram tissu
Intestine radioactivity ([1]; 30 min after injection): 9.11 ± 0.57 % injected dose per gram tissu
Kidney radioactivity ([1]; 30 min after injection): 12.6 ± 2.36 % injected dose per gram tissu
Liver radioactivity ([1]; 30 min after injection): 13.3 ± 1.83 % injected dose per gram tissu
Lung radioactivity ([1]; 30 min after injection): 4.40 ± 1.60 % injected dose per gram tissu
Muscle radioactivity ([1]; 30 min after injection): 1.02 ± 0.53 % injected dose per gram tissu
Pancreas radioactivity ([1]; 30 min after injection): 3.42 ± 0.33 % injected dose per gram tissu
Skin radioactivity ([1]; 30 min after injection): 1.02 ± 0.08 % injected dose per gram tissu
Spleen radioactivity ([1]; 30 min after injection): 3.70 ± 1.24 % injected dose per gram tissu
Stomach radioactivity ([1]; 30 min after injection): 3.41 ± 0.37 % injected dose per gram tissu
Thyroid radioactivity ([1]; 30 min after injection): 0.01 ± 0.01 % injected dose per organ
Blood radioactivity ([1]; 1 h after injection): 0.83 ± 0.16 % injected dose per gram tissu
Bone radioactivity ([1]; 1 h after injection): 1.81 ± 2.40 % injected dose per gram tissu
Brain radioactivity ([1]; 1 h after injection): 0.47 ± 0.29 % injected dose per gram tissu
Colon radioactivity ([1]; 1 h after injection): 3.30 ± 0.10 % injected dose per gram tissu
Heart radioactivity ([1]; 1 h after injection): 1.33 ± 0.23 % injected dose per gram tissu
Intestine radioactivity ([1]; 1 h after injection): 15.84 ± 2.63 % injected dose per gram tissu
Kidney radioactivity ([1]; 1 h after injection): 7.94 ± 0.37 % injected dose per gram tissu
Liver radioactivity ([1]; 1 h after injection): 12.3 ± 2.45 % injected dose per gram tissu
Lung radioactivity ([1]; 1 h after injection): 3.42 ± 0.83 % injected dose per gram tissu
Muscle radioactivity ([1]; 1 h after injection): 0.65 ± 0.04 % injected dose per gram tissu
Pancreas radioactivity ([1]; 1 h after injection): 2.47 ± 0.43 % injected dose per gram tissu
Skin radioactivity ([1]; 1 h after injection): 0.99 ± 0.06 % injected dose per gram tissu
Spleen radioactivity ([1]; 1 h after injection): 2.44 ± 0.35 % injected dose per gram tissu
Stomach radioactivity ([1]; 1 h after injection): 4.33 ± 0.76 % injected dose per gram tissu
Thyroid radioactivity ([1]; 1 h after injection): 0.03 ± 0.01 % injected dose per organ
Blood radioactivity ([1]; 3 h after injection): 0.50 ± 0.13 % injected dose per gram tissu
Bone radioactivity ([1]; 3 h after injection): 0.25 ± 0.16 % injected dose per gram tissu
Brain radioactivity ([1]; 3 h after injection): 0.27 ± 0.05 % injected dose per gram tissu
Colon radioactivity ([1]; 3 h after injection): 21.14 ± 5.62 % injected dose per gram tissu
Heart radioactivity ([1]; 3 h after injection): 0.64 ± 0.25 % injected dose per gram tissu
Intestine radioactivity ([1]; 3 h after injection): 14.82 ± 7.80 % injected dose per gram tissu
Kidney radioactivity ([1]; 3 h after injection): 13.80 ± 9.25 % injected dose per gram tissu
Liver radioactivity ([1]; 3 h after injection): 10.94 ± 7.67 % injected dose per gram tissu
Lung radioactivity ([1]; 3 h after injection): 1.75 ± 0.18 % injected dose per gram tissu
Muscle radioactivity ([1]; 3 h after injection): 1.00 ± 1.27 % injected dose per gram tissu
Pancreas radioactivity ([1]; 3 h after injection): 2.18 ± 0.92 % injected dose per gram tissu
Skin radioactivity ([1]; 3 h after injection): 0.47 ± 0.46 % injected dose per gram tissu
Spleen radioactivity ([1]; 3 h after injection): 0.99 ± 0.56 % injected dose per gram tissu
Stomach radioactivity ([1]; 3 h after injection): 0.59 ± 0.23 % injected dose per gram tissu
Thyroid radioactivity ([1]; 3 h after injection): 0.05 ± 0.04 % injected dose per organ
Blood radioactivity ([1]; 6 h after injection): 0.29 ± 0.03 % injected dose per gram tissu
Bone radioactivity ([1]; 6 h after injection): 0.23 ± 0.02 % injected dose per gram tissu
Brain radioactivity ([1]; 6 h after injection): 0.11 ± 0.03 % injected dose per gram tissu
Colon radioactivity ([1]; 6 h after injection): 22.10 ± 7.54 % injected dose per gram tissu
Heart radioactivity ([1]; 6 h after injection): 0.63 ± 0.21 % injected dose per gram tissu
Intestine radioactivity ([1]; 6 h after injection): 8.53 ± 1.84 % injected dose per gram tissu
Kidney radioactivity ([1]; 6 h after injection): 3.58 ± 0.52 % injected dose per gram tissu
Liver radioactivity ([1]; 6 h after injection): 4.70 ± 0.36 % injected dose per gram tissu
Lung radioactivity ([1]; 6 h after injection): 1.77 ± 0.22 % injected dose per gram tissu
Muscle radioactivity ([1]; 6 h after injection): 0.25 ± 0.04 % injected dose per gram tissu
Pancreas radioactivity ([1]; 6 h after injection): 1.53 ± 0.38 % injected dose per gram tissu
Skin radioactivity ([1]; 6 h after injection): 0.75 ± 0.46 % injected dose per gram tissu
Spleen radioactivity ([1]; 6 h after injection): 1.08 ± 0.25 % injected dose per gram tissu
Stomach radioactivity ([1]; 6 h after injection): 0.73 ± 0.60 % injected dose per gram tissu
Thyroid radioactivity ([1]; 6 h after injection): 0.03 ± 0.02 % injected dose per organ
Blood radioactivity ([1]; 24 h after injection): 0.08 ± 0.04 % injected dose per gram tissu
Bone radioactivity ([1]; 24 h after injection): 0.04 ± 0.02 % injected dose per gram tissu
Brain radioactivity ([1]; 24 h after injection): 0.02 ± 0.06 % injected dose per gram tissu
Colon radioactivity ([1]; 24 h after injection): 15.91 ± 6.59 % injected dose per gram tissu
Heart radioactivity ([1]; 24 h after injection): 0.22 ± 0.04 % injected dose per gram tissu
Intestine radioactivity ([1]; 24 h after injection): 3.76 ± 1.38 % injected dose per gram tissu
Kidney radioactivity ([1]; 24 h after injection): 0.62 ± 0.10 % injected dose per gram tissu
Liver radioactivity ([1]; 24 h after injection): 0.52 ± 0.10 % injected dose per gram tissu
Lung radioactivity ([1]; 24 h after injection): 0.38 ± 0.09 % injected dose per gram tissu
Muscle radioactivity ([1]; 24 h after injection): 0.03 ± 0.01 % injected dose per gram tissu
Pancreas radioactivity ([1]; 24 h after injection): 0.35 ± 0.05 % injected dose per gram tissu
Skin radioactivity ([1]; 24 h after injection): 0.17 ± 0.11 % injected dose per gram tissu
Spleen radioactivity ([1]; 24 h after injection): 0.24 ± 0.02 % injected dose per gram tissu
Stomach radioactivity ([1]; 24 h after injection): 0.16 ± 0.04 % injected dose per gram tissu
Thyroid radioactivity ([1]; 24 h after injection): 0.01 ± 0.00 % injected dose per organ
Bmax ([2]; A431 P2 membranes, Scatchard analysis): 27.0 ± 3.43 pmol/mg protein
Hill's constant value ([2]; A431 membranes): 1.02
binding to cell membranes (NALM6 cell membranes): undetectable
SPECT images of tumors (in words) (A431 tumor): very clear
